# Test results as given in patent US20040242871A1, “Novel arylheteroalkylamine derivatives” (priority 2001, published 2004).
row,Compound,melting point
1,"N#Cc1cc(F)c(Cl)cc1O[C@H](C[C@H](N)CO)c1ccsc1.O=C(O)C(=O)O [Example 54, 2-[[3-(3S)-Amino-4-hydroxy-1(R)-(3-thienyl)butyl]oxy]-4-chloro-5-fluorobenzonitrile ethanedioate]",111 to 115 °C
2,"Cl.Cl.N#Cc1ccc(C(F)(F)F)cc1S[C@H](C[C@H](N)CO)c1cccnc1 [Example 55, 2-[[(1R,3S)-3-Amino-4-hydroxy-1-(3-pyridinyl)butyl]thio]-4-(trifluoromethyl)benzonitrile dihydrochloride]",238 to 240 °C
3,"CC(=O)c1ccc(C#N)c(S[C@H](C[C@H](N)CO)c2ccccc2)n1.Cl [Example 20, 6-Acetyl-2-[[(1R,3S)-3-amino-4-hydroxy-1-phenylbutyl]thio]-3-pyridinecarbonitrile Hydrochloride]",78 °C
4,"CCC[C@@H](C[C@H](N)CO)Oc1cc(Cl)c(F)cc1C#N.O=C(O)C(=O)O [Example 48, 2-[[(1S,3S)-3-Amino-4-hydroxy-1-propylbutyl]oxy]-4-chloro-5-fluorobenzonitrile ethanedioate]",171 to 172 °C
5,"N#Cc1cccnc1S[C@H](C[C@H](N)CO)c1ccccc1.O=C(O)/C=C/C(=O)O [Example 22, 2-[[(1R,3S)-3-Amino-4-hydroxy-1-phenylbutyl]thio]-3-pyridinecarbonitrile (E)-butenedioate]",67 to 69 °C
6,"COc1cc(S[C@H](C[C@H](N)CO)c2ccccc2F)c(C#N)cn1.O=C(O)C(=O)O [Example 35, 4-[[(1R,3S)-3-Amino-1-(2-fluorophenyl)-4-hydroxybutyl]thio]-6-methoxy-3-pyridinecarbonitrile ethanedioate]",179 to 185 °C
7,"CCN[C@H](CO)C[C@@H](Oc1cc(Cl)c(F)cc1C#N)c1nccs1.O=C(O)C(=O)O [Example 44, 4-Chloro-2-[[(1R,3S)-3-(ethylamino)-4-hydroxy-1-(2-thiazolyl)butyl]oxy]-5-fluoro-benzonitrile ethanedioate salt]",55 to 80 °C
8,"Cc1nc(O[C@H](C[C@H](N)CO)c2nccs2)c(C#N)cc1F.Cl [Example 59, 2-[[(1R,3S)-3-Amino-4-hydroxy-1-(2-thiazolyl)butyl]oxy]-5-fluoro-6-methyl-3-pyridinecarbonitrile hydrochloride]",148 to 150 °C
9,"CNc1cc(S[C@H](C[C@H](N)CO)c2ccccc2)c(C#N)cn1.Cl.Cl [Example 26, 4-[[(1R,3S)-3-Amino-4-hydroxy-1-phenylbutyl]thio]-6-(methylamino)-3-pyridinecarbonitrile dihydrochloride]",206 to 208 °C
10,"CCOc1cc(S[C@H](C[C@H](N)CO)c2ccccc2)c(C#N)cn1 [Example 29, 4-[[(1R,3S)-3-Amino-4-hydroxy-1-phenylbutyl]thio]-6-ethoxy-3-pyridinecarbonitrile. (E)-butenedioate]",169.5 to 171.5 °C
11,"CC(C)(O)[C@@H](N)C[C@@H](Oc1cc(Cl)c(F)cc1C#N)c1ccccc1.O=C(O)C(=O)O [Example 47, 2-[[(1R,3S)-3-Amino-4-hydroxy-4-methyl-1-phenylpentyl]oxy]-4-chloro-5-fluoro benzonitrile ethanedioate]",80 °C
12,"N#Cc1cnc(OC(F)F)cc1S[C@H](C[C@H](N)CO)c1ccccc1.O=C(O)/C=C/C(=O)O [Example 14, 4-[[(1R,3S)-3-Amino-4-hydroxy-1-phenylbutyl]thio]-6-(difluoromethoxy)-3-pyridinecarbonitrile (E)-butenedioate]",144 to 146 °C
13,"N#Cc1cc(F)c(Cl)cc1O[C@H](C[C@H](N)CO)c1scnc1Cl.O=C(O)/C=C/C(=O)O [Example 61, 2-[[(1R,3S)-3-Amino-1-(4-chloro-5-thiazolyl)-4-hydroxybutyl]oxy]-4-chloro-5-fluorobenzonitrile (E)-butenedioate salt]",177 to 178 °C
14,"COc1cc(S[C@@H](C[C@H](N)CO)c2ccccc2)c(C#N)cn1.O=C(O)/C=C/C(=O)O [Example 13, 4-[[(1S,3S)-3-Amino-4-hydroxy-1-phenylbutyl]thio]-6-methoxy-3-pyridinecarbonitrile (E)-butenedioate]",213 to 228 °C
15,"N#Cc1ccc(C(F)(F)F)nc1O[C@H](C[C@H](N)CO)c1ccc(F)cc1.O=C(O)C(=O)O [Example 36, 2-[[(1R,3S)-3-Amino-1-(4-fluorophenyl)-4-hydroxybutyl]oxy]-6-trifluoromethyl-3-pyridinecarbonitrile ethanedioate]",109 to 114 °C
16,"COc1cc(S[C@H](C[C@H](N)CO)c2sccc2F)c(C#N)cn1.O=C(O)/C=C/C(=O)O [Example 60, 4-[[(1R,3S)-3-Amino-1-(3-fluoro-2-thienyl)-4-hydroxybutyl]thio]-6-methoxy-3-pyridinecarbonitrile (E)-butenedioate salt]",177 to 178 °C
17,"COc1cc(S[C@H](C[C@@H](N)CO)c2ccccc2)c(C#N)cn1.O=C(O)/C=C/C(=O)O [Example 11, 4-[[(1R,3R)-3-Amino-4-hydroxy-1-phenylbutyl]thio]-6-methoxy-3-pyridinecarbonitrile (E)-butenedioate]",221 to 223 °C
18,"Cl.Cl.N#Cc1cc(F)c(Cl)cc1S[C@H](C[C@H](N)CO)c1cccnc1 [Example 57, 2-[[(1R,3S)-3-Amino-4-hydroxy-1-(3-pyridinyl)butyl]thio]-4-chloro-5-fluorobenzonitrile dihydrochloride]",252 to 255 °C
19,"N#Cc1ccc(C(F)(F)F)nc1OC(C[C@H](N)CO)c1ccno1.O=C(O)/C=C/C(=O)O (stereo partly drawn) [Example 52, 2-[[(3S)-3-Amino-4-hydroxy-1-(5-isoxazolyl)butyl]oxy]-6-(trifluoromethyl)-3-pyridinecarbonitrile, (E)-butenedioate]",150 to 152 °C
20,"N#Cc1ncc(C(F)(F)F)cc1S[C@H](C[C@H](N)CO)c1ccccc1.O=C(O)C(=O)O [Example 30, 3-[[(1R,3S)-3-Amino-4-hydroxy-1-phenylbutyl]thio]-5-(trifluoromethyl)-2-pyridinecarbonitrile ethanedioate]",147 to 149 °C
21,"Cc1ccc(C#N)c(SC(C[C@H](N)CO)c2ccno2)n1.O=C(O)/C=C/C(=O)O (stereo partly drawn) [Example 51, 2-[[(3S)-3-Amino-4-hydroxy-1-(5-isoxazolyl)butyl]thio]-6-methyl-3-pyridinecarbonitrile (E)-butenedioate]",150 to 152 °C
22,"COc1cc(S[C@H](C[C@H](N)CO)c2ccccc2)c(Cl)cn1 [Example 28, (β^1S,β^1R) β-Amino-δ-[(5-chloro-2-methoxy-4-pyridinyl)thio]-benzenebutanol (E)-2-butenedioate]",191 to 193 °C
23,"COc1cc(S[C@H](C[C@H](N)CO)c2ccccc2)c(Br)cn1 [Example 27, (β^1S,β^1R)-β-Amino-δ-[(5-bromo-2-methoxy-4-pyridinyl)thio]-benzenebutanol (E)-2-butenedioate]",178 to 180 °C
24,"Cl.N#Cc1ccc(Cl)cc1S[C@H](C[C@H](N)CO)c1cncnc1 [Example 56, 2-[[(1R,3S)-3-Amino-4-hydroxy-1-(5-pyrimidyl)butyl]thio]-4-chlorobenzonitrile hydrochloride]",120 to 130 °C
25,"COc1cc(S[C@@H](C[C@@H](N)CO)c2ccccc2)c(C#N)cn1.O=C(O)/C=C/C(=O)O [Example 12, 4-[[(1S,3R)-3-Amino-4-hydroxy-1-phenylbutyl]thio]-6-methoxy-3-pyridinecarbonitrile, (E)-butenedioate]",162.5 to 163 °C
26,"COc1cc(S[C@H](C[C@H](N)CO)c2ccccc2)c(C#N)cn1 [Example 10, 4-[[(1R,3S)-3-Amino-4-hydroxy-1-phenylbutyl-]thio]-6-methoxy-3-pyridinecarbonitrile (E)-butenedioate]",172 to 173 °C
27,"N#Cc1ccc(S[C@H](C[C@H](N)CO)c2ccccc2)c(Cl)c1.O=C(O)C(=O)O [Example 43, 4-[[(1R,3S)-3-Amino-4-hydroxy-1-phenylbutyl]thio]-3-chlorobenzonitrile ethanedioate]",142 to 144 °C
28,"N#Cc1ccc(CO)nc1S[C@H](C[C@H](N)CO)c1ccccc1.O=C(O)/C=C/C(=O)O [Example 21, 2-[[(1R,3S)-3-Amino-4-hydroxy-1-phenylbutyl]thio]-6-(hydroxymethyl)-3-pyridinecarbonitrile (E)-butenedioate]",147 to 149 °C
29,"Cl.Cl.N#Cc1ccc(Br)cc1S[C@H](C[C@H](N)CO)c1cccnc1 [Example 58, 2-[[(1R,3S)-3-Amino-4-hydroxy-1-(3-pyridyl)butyl]thio]-4-bromobenzonitrile dihydrochloride]",278 to 280 °C
30,"N#Cc1cc(F)ccc1O[C@H](C[C@H](N)CO)c1cncs1.O=C(O)/C=C/C(=O)O [Example 45, 2-[[(1R,3S)-3-Amino-4-hydroxy-1-(5-thiazolyl)butyl]oxy]-5-fluoro-benzonitrile (2E)-2-butenedioate]",163 to 165 °C
